What was measured:
in vivo [1] = details: mouse, iv, 0.3 mg/kg
in vivo [2] = details: Wistar, rat, iv, 0.3 mg/kg
in vivo [3] = details: Wistar, rat, iv, 0.3 mg/kg; remark: listed apart in the source
in vivo [4] = details: mouse, iv, 0.3 mg/kg; remark: listed apart in the source
in vivo [5] = details: mouse, iv, 0.3 mg/kg; remark: listed apart in the source
in vivo [6] = details: Wistar, rat, po, 0.6 mg/kg
in vivo [7] = details: Wistar, rat, iv, 0.3 mg/kg; remark: listed apart in the source
in vivo [8] = details: Wistar, rat, po, 0.6 mg/kg; remark: listed apart in the source

## FC(F)c1cncc(-c2ccc3ncc4nnc(C5=CCCOCC5)n4c3c2)c1
In vivo [1]
  Vd at 24 h: 3.7 L/kg
In vivo [2]
  clearance at 24 h: 36.7 mL/min/kg
In vivo [3]
  Vd at 24 h: 1.8 L/kg
In vivo [4]
  clearance at 24 h: 135 mL/min/kg
In vivo [5]
  half-life at 24 h: 40.8 min
In vivo [6]
  half-life at 24 h: 240 min
In vivo [7]
  half-life at 24 h: 50.4 min
In vivo [8]
  bioavailability at 24 h: 22%

From ChEMBL document CHEMBL4837246 (J Med Chem, 2021)
